Experimental data: article PMC5874719, “A π-Halogen Bond of Dibenzofuranones with the Gatekeeper Phe113 in Human Protein Kinase CK2 Leads to Potent Tight Binding Inhibitors” (Pharmaceuticals, 2018)

Legend:
ARPE19 cells = assay: MTT viability assay; type: cell-based, human; details: 24 h; for cell viability reduced to: ARPE19, 50 µM (highest concentration), DMSO as reference
Method: (§1) Protein kinase CK2 is essential for the survival of cells. Therefore, we tested the impact of the CK2 inhibitors on the viability of cells in both lines. The inhibitors were applied in increasing concentrations up to 50 µM to growing cell cultures and the viability was analyzed by a MTT assay after 24 h of treatment. The effect of the compounds on the growth of the normal ARPE19 cells was rather moderate (Figure 5A). 5 had no impact on ARPE19 cell viability. 4b reduced the viability to 70% in its highest concentration and 4a exerted the strongest influence by reducing the ratio of viable cells to 40% when applying a 50 µM dose. In contrast LNCaP cells were strongly impaired by the treatment with the dibenzofurans (Figure 5B): Using 10 µM of the different inhibitors, we only observed an effect with 4b. However, increasing the concentration to 20, 25 and 50 µM exerted a drastic impact on the viability of LNCaP cells. With 50 µM 4b a viability rate of final 5% was obtained, whereas 4a and 5 reduced the viability to 30 to 35%. Thus, the inhibitors in particular affected the viability of LNCaP carcinoma cells, but not of normal retinal pigment epithelium cells. […] Even after 48 h of growth under CK2 inhibition ARPE19 cells appeared rather unaffected by the treatment. […]
(§2) Figure 5 Effects of dibenzofuran inhibitors on cell viability. […] Cell viability was determined using the MTT assay after 24 h of incubation. […]
(§3) ARPE19 cells (ATCC Number: CRL-2302), retinal pigment epithelia (RPE) cells, were maintained at 37 °C and 5% CO2 in Dulbecco’s modified Eagles medium (DMEM) supplemented with 2 mM L-glutamine, 1 mM gentamicin and 10% fetal calf serum (FCS) at 37 °C in an atmosphere enriched with 5% CO2. […] For the evaluation of cell morphology ARPE19 and LNCaP cells were analysed with bright field microscopy using a Axiovert microscope from Zeiss (Jena, Germany).
(§4) Cell proliferation and viability was determined using a colorimetric MTT-based assay (MTT: 3-[4,5-dimethylthiazol-2-yl]-2,5-diphenyl tetrazolium bromide, Sigma-Aldrich, Deisenhofen, Germany) as described in [72]. […]

LNCaP cells = assay: MTT viability assay; type: cell-based; details: Homo sapiens, 24 h, DMSO as reference, read-out: cell viability
Method: as §1, §2, §3, §4

[1] = system: caspases 3 and 7 in LNCaP cells; assay: Caspase-Glo 3/7 assay; type: cell-based, human; details: for caspase 3/7 activity, maximum obtained: 25 or 50 µM, 24 or 48 h; for caspase 3/7 activity: 50 µM, 48 h
Source text: Reducing the activity of CK2 by the inhibitors is supposed to overcome the antiapoptotic effect of the enzyme and cells are induced to undergo apoptosis. […] In consequence, we analyzed in the next experiments whether the cells were killed by apoptosis. Hallmark of apoptosis is the activation of the key effector caspases 3 and 7 which ends in the cleavage of poly (ADP ribose) polymerase PARP1. The full-length PARP1 is cleaved by the caspases to an 89 and a 24 kDa fragment. These events of late apoptotic signaling were analyzed in ARPE19 and LNCaP cells grown in the presence and in the absence of dibenzofurans. Inhibitor concentrations of 25 and 50 µM were used and were applied for 24 and 48 h. In cell lysates of LNCaP and ARPE19 cells the activity of caspases 3 and 7 was determined subsequently by a luminescence based assay (Figure 6A).
(§5) (A) ARPE19 or LNCaP cells were treated with DMSO as control (0 μM) or with 25 or 50 μM 4b, 4a or 5 for 24 or 48 h. Activity of caspases 3 and 7 was determined using the luminescent Caspase-Glo® 3/7 assay according to the technical bulletin of the manufacturer. Median relative light units (RLU) + standard deviation from at least three independent experiments are shown in the bar graph. (B) Cells were treated as described before. 75 μg cell extract was separated in a 10% SDS polyacrylamide gel and analyzed in a Western blot analysis with a rabbit polyclonal antibody against PARP1. + is a positive control for PARP cleavage.
The activity of the apoptotic key effector caspases 3 and 7 in cell extracts was determined using the Caspase-Glo 3/7 assay according to the protocol of the manufacturer (Promega, Mannheim, Germany).

PARP1 in LNCaP cells = assay: PARP1 cleavage, Western blot; type: cell-based, human
Method: as §5, with “Figure 6 Induction of apoptosis in prostate cancer cell line LNCaP and non-neoplastic retinal pigment epithelial cell line ARPE19. (A)” for “(A)”
In addition to the luminescence assay, Western blot analysis was performed to check PARP1-cleavage (Figure 6B). Therefore specific antibodies for the detection of the full-length PARP1 (113 kDa) and the larger cleavage fragment of PARP1 (89 kDa) were used. In ARPE19 cells no cleavage product of PARP1 was detectable.
Proteins were separated by SDS polyacrylamide gel electrophoresis and blotted onto a PVDF membrane. After blocking (1 h with PBS-Tween20 with 5% dry milk) the membrane was incubated with appropriate dilutions of primary antibodies in PBS-Tween20 with 1% dry milk for another hour at room temperature or at 4 °C overnight. Then the membrane was washed twice for 10 min with PBS-Tween20 with 1% dry milk. Incubation with the peroxidase-coupled secondary antibody (anti-rabbit 1:30,000, anti-mouse 1:10,000) followed for 1 h. The membrane was washed again twice for 10 min with PBS-Tween20. Signals were developed and visualized by the Lumilight system of Roche Diagnostics GmbH. For the detection of the apoptose marker protein PARP we used a polyclonal PARP antibody (Cell Signaling Technology, Frankfurt, Germany), a GAPDH specific antibody (Santa Cruz Biotechnologies, Dallas, TX, USA) was used for loading control. […]

Row | Compound | cell viability reduced to (ARPE19 cells) | viability at 50 µM (LNCaP cells) | caspase 3/7 activity, maximum obtained [1] | PARP1 cleavage (PARP1 in LNCaP cells; 25 or 50 µM, 24 or 48 h) | impact on cell viability (ARPE19 cells; ARPE19, up to 50 µM) | caspase 3/7 activity [1] | PARP1 cleavage (PARP1 in LNCaP cells; 50 µM)
1 | COc1ccc(N/C=C2\C(=O)CCc3c2oc2cc(Cl)c(O)c(Cl)c32)cc1 [4a, 7,9-dichloro-1,2-dihydro-8-hydroxy-4-[(4-methoxyphenylamino)methylene]dibenzo[b,d]furan-3(2H)-one] | 40% | 30 to 35% | 17,000 RLU | did not result in cleavage of PARP1 | – | – | –
2 | COc1ccc(/N=C/c2c(O)ccc3c2oc2cc(Cl)c(O)c(Cl)c23)cc1 [compound 5, (E)-1,3-dichloro-6-[(4-methoxyphenylimino)methyl]dibenzo[b,d]furan-2,7-diol] | – | 30 to 35% | 55,000 RLU | – | no impact | > 50,000 RLU | cleavage of PARP1
3 | Cc1ccc(NC=C2C(=O)CCc3c2oc2c(Cl)c(Cl)c(O)cc32)cc1 [4b, 6,7-dichloro-1,4-dihydro-8-hydroxy-4-[(4-methylphenylamino)methylene]dibenzo[b,d]furan-3(2H)-one] | 70% | 5% | – | – | – | > 50,000 RLU | cleavage of PARP1
